Active and inactive are the calls of the source. How the calls were made is not given here.
target: Ubiquitin carboxyl-terminal hydrolase 10 (Homo sapiens) (UniProt Q14694); assay: primary hit verification, biochemical, ubiquitin-specific protease 10 deubiquitylase inhibitors, concentration-effect titration (AID 1645863); conditions: USP10 deubiquitinase enzymatic assay;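 further: potency values describe inhibition of USP10 cleavage of a fluorogenic ubiquitin substrate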
Sequence (Q14694 whole entry, looked up): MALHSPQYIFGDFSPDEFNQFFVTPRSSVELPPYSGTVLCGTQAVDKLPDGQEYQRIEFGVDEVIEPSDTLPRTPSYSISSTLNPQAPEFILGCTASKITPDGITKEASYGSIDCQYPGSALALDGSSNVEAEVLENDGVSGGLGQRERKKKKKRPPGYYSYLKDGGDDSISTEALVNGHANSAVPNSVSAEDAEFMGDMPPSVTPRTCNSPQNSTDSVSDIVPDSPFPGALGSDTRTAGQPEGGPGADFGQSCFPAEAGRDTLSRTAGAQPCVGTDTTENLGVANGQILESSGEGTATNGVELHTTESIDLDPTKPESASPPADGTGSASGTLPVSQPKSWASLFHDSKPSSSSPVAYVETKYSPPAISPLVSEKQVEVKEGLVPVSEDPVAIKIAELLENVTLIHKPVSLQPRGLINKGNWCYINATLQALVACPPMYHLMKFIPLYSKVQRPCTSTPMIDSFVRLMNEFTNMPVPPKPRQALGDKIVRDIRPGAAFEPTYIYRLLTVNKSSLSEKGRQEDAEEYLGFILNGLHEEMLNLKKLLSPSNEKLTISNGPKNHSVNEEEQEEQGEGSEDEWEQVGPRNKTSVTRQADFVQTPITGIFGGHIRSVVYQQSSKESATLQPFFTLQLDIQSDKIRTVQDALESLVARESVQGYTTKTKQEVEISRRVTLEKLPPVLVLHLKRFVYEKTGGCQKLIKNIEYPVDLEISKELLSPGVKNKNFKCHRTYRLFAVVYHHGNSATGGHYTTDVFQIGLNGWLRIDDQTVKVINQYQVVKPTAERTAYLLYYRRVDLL

**Q.** CCN(CC)C(=O)c1sc(NC(=O)c2cc(-c3ccccc3Cl)nc3ccccc23)c(C(N)=O)c1C was tested. Which IC50 did it give?
**A.** > 40 µM (inactive)

**Q.** Which IC50 does the source give for COc1cccc2c1NC(=O)C21CCN(C(=O)Nc2cccc3ccccc23)CC1 here?
**A.** > 40 µM (inactive)

**Q.** With COc1ccc(Cl)cc1NC(=O)Cn1c(=O)n(CCCC(=O)NCc2ccc(C)cc2)c(=O)c2sccc21 as the compound, how does the IC50 read?
**A.** 31.1 µM

**Q.** With COc1ccc(C(=O)C(C)OC(=O)c2cccc(S(=O)(=O)Nc3cc([N+](=O)[O-])ccc3OC)c2)c(OC)c1 (stereo unspecified) as the compound, how does the IC50 read?
**A.** > 40 µM (inactive)

**Q.** Which IC50 does the source give for Cc1ccc(S(=O)(=O)Nc2cccc(Cl)c2)cc1NC(=O)CCC(=O)c1ccc(Cl)cc1 here?
**A.** > 40 µM (inactive)

**Q.** For O=C(Nc1cc(F)c2nc(N3CCOCC3)ccc2c1)C1CC1, which IC50 is on record?
**A.** > 40 µM (inactive)

**Q.** How did the IC50 turn out when CN(C)S(=O)(=O)c1ccc(NC(=O)CN2CCCc3ccccc32)cc1 was run?
**A.** > 40 µM (inactive)

**Q.** How did the IC50 turn out when COc1ccc(Sc2nc3ccccc3n3cnnc23)cc1 was run?
**A.** > 40 µM (inactive)

**Q.** For COc1ccc(-c2cc(-c3ccccc3)nc(SCC(N)=O)c2C#N)cc1OC, which IC50 is on record?
**A.** 21.6 µM

**Q.** Cc1cccc(NC(=O)CSc2nnc(-c3n[nH]c4c3CCC4)n2N)c1C was tested. Which IC50 did it give?
**A.** > 40 µM (inactive)

**Q.** For COCCCN1CCS(=O)(=O)c2c(Cl)c(F)nc(Oc3ccccc3F)c21, which IC50 is on record?
**A.** > 40 µM (inactive)

**Q.** COc1cc(Cl)c(NC(=O)c2cc(-c3ccccn3)n[nH]2)c(OC)c1 was tested. Which IC50 did it give?
**A.** > 40 µM (inactive)

**Q.** For COc1ccc(Cn2c(=O)[nH]c3cc(C(=O)NCCCN4CCN(c5cccc(Cl)c5)CC4)ccc3c2=O)cc1, which IC50 is on record?
**A.** > 40 µM (inactive)

**Q.** For C/C=C/C=C/[C@@H]1Cc2cc(O)cc(O)c2O1, which IC50 is on record?
**A.** 35.6 µM

**Q.** Which IC50 does the source give for O=c1[nH]c(C2CCN(S(=O)(=O)c3ccc(S(=O)(=O)NC4CCCCC4)cc3)CC2)nc2c1nnn2Cc1ccc(F)cc1 here?
**A.** 21.9 µM

**Q.** For CCc1ccc(NC(=O)CSc2nc3nccnc3c(=O)n2Cc2ccc(F)cc2)cc1, which IC50 is on record?
**A.** > 40 µM (inactive)

**Q.** Which IC50 does the source give for CC(Nc1nnc(Cc2ccccc2)c(=O)[nH]1)c1ccccc1 (stereo unspecified) here?
**A.** > 40 µM (inactive)

**Q.** Which IC50 does the source give for Cn1c(C(=O)NCc2ccccn2)cc2c(=O)[nH]c3ccccc3c21 here?
**A.** > 40 µM (inactive)

**Q.** With Cn1c(=O)c(-c2ccc(C(=O)NCc3cccc(Cl)c3)cc2)nc2cccnc21 as the compound, how does the IC50 read?
**A.** > 40 µM (inactive)

**Q.** How did the IC50 turn out when COc1cc(NC(=O)Cn2c(=O)n(-c3ccc(CC(=O)NC4CCCC4)cc3)c(=O)c3ccccc32)cc(OC)c1 was run?
**A.** > 40 µM (inactive)

**Q.** O=C(CSc1nc2ccccc2[nH]1)Nc1cccc2c1OCCO2 was tested. Which IC50 did it give?
**A.** > 40 µM (inactive)

**Q.** With O=C(Nc1ccncc1)c1cn(Cc2ccccc2)cc2c(=O)n(-c3ccccc3)nc1-2 as the compound, how does the IC50 read?
**A.** > 40 µM (inactive)

**Q.** Which IC50 does the source give for Cc1ccc(C)c(S(=O)(=O)N2CCN(c3ccc4nnc(-c5ccco5)n4n3)CC2)c1 here?
**A.** > 40 µM (inactive)

**Q.** For CSc1cccc(NC(=O)c2cc(-c3cccnc3)n[nH]2)c1, which IC50 is on record?
**A.** > 40 µM (inactive)

**Q.** O=C(CC1C(=O)Nc2nc(-c3ccccc3)nn21)Nc1cccc2ccccc12 (stereo unspecified) was tested. Which IC50 did it give?
**A.** 13.3 µM

**Q.** How did the IC50 turn out when CCOc1cc2c(cc1OCC)C(c1cc3c(cc1Br)OCO3)NCC2 (stereo unspecified) was run?
**A.** > 40 µM (inactive)

**Q.** For NC(=O)c1nc(-c2cccnc2)nc2c1[nH]c(=O)n2-c1ccc2c(c1)OCO2, which IC50 is on record?
**A.** > 40 µM (inactive)

**Q.** With Cc1ccc(C)c(Cn2cnc3c(nnn3-c3cccc(F)c3)c2=O)c1 as the compound, how does the IC50 read?
**A.** > 40 µM (inactive)

**Q.** How did the IC50 turn out when Cc1nc2c(c(C)c1CCC(=O)Nc1ccccc1F)c(=O)n(C)c(=O)n2C was run?
**A.** > 40 µM (inactive)

**Q.** With COc1ccc(-c2ccc(SCC(=O)Nc3ccc(F)cc3)nn2)cc1OC as the compound, how does the IC50 read?
**A.** > 40 µM (inactive)

**Q.** Cc1cc(C(=O)NC2(O)C(=O)c3ccccc3C2=O)n(C)n1 was tested. Which IC50 did it give?
**A.** 14.2 µM

**Q.** Which IC50 does the source give for Cc1cc(Cl)ccc1NC(=O)c1cc(-c2ccncc2)n[nH]1 here?
**A.** > 40 µM (inactive)

**Q.** How did the IC50 turn out when CCCCCCCc1cc(OC(=O)c2c(CCCCCCC)cc(O)cc2O[C@@H]2O[C@H](CO)[C@@H](O)[C@H](O)[C@H]2O)cc(O)c1C(=O)O was run?
**A.** 3.94 µM

**Q.** With Cc1cccc(NC(=O)CCCc2nnc3c(=O)n(-c4cccc(F)c4)ccn23)c1 as the compound, how does the IC50 read?
**A.** > 40 µM (inactive)

**Q.** For CN(C)[C@@H]1C(=O)C(C(N)=O)=C(O)[C@@]2(O)C(=O)C3=C(O)c4c(O)cccc4[C@@](C)(O)C3[C@H](O)[C@@H]12 (stereo partly specified), which IC50 is on record?
**A.** 1.1 µM

**Q.** For Cc1nnc(NC(=O)C2CC(=O)N(CCc3ccc(F)cc3)C2)s1 (stereo unspecified), which IC50 is on record?
**A.** > 40 µM (inactive)

**Q.** NS(=O)(=O)c1ccc(CNC(=O)c2ccc(Cl)c(S(=O)(=O)Nc3cc(Cl)ccc3Cl)c2)cc1 was tested. Which IC50 did it give?
**A.** 26.4 µM

**Q.** Which IC50 does the source give for O=C1c2c(O)c(Cl)cc3c2[C@@]2(Oc4ccc(O)c5c4[C@]3(O2)[C@@H]2O[C@@H]2C5=O)[C@@H]2O[C@H]12 here?
**A.** 1.31 µM

**Q.** Which IC50 does the source give for Cc1ccc(-n2cc(-c3noc(C(=O)Nc4ccc(F)cc4C)n3)nn2)cc1 here?
**A.** 10.1 µM

**Q.** O=C(NC1(O)C(=O)c2ccccc2C1=O)c1cccc2c1-c1ccccc1C2=O was tested. Which IC50 did it give?
**A.** 10.3 µM

**Q.** Cc1ccc(NC(=O)Nc2ccc(C)n(CC(=O)Nc3ccc(C)c(C)c3)c2=O)cc1 was tested. Which IC50 did it give?
**A.** 11.1 µM

**Q.** How did the IC50 turn out when CC1=C(C)C(N(c2ccccc2)c2ccccc2)N(CCC(C)C)C1=O (stereo unspecified) was run?
**A.** > 40 µM (inactive)

**Q.** With CC(C)=CCC[C@H](C(=O)O)[C@@H]1CC[C@]2(C)C3=C(CC[C@@]12C)[C@@]1(C)CCC(=O)C(C)(C)C1CC3 (stereo partly specified) as the compound, how does the IC50 read?
**A.** 23.8 µM

**Q.** FC(F)(F)c1ccc(Nc2nnnc3ccccc23)cc1 was tested. Which IC50 did it give?
**A.** 16.6 µM

**Q.** How did the IC50 turn out when COc1ccc2c(c1)CCc1c-2nc2ccccc2c1N1CCOCC1 was run?
**A.** > 40 µM (inactive)

**Q.** Cc1nc(-c2ccc(Cl)cc2)oc1C(=O)Nc1ccc(Cl)cc1 was tested. Which IC50 did it give?
**A.** 38.1 µM

**Q.** CC1CCCN(S(=O)(=O)c2ccc(-n3cnc(C(=O)NC4CC4)c3)nc2)C1 (stereo unspecified) was tested. Which IC50 did it give?
**A.** 23.2 µM

**Q.** How did the IC50 turn out when Cc1ccc(C(=O)c2cn(CC(=O)Nc3ccc(F)c(F)c3)c3ccc(F)cc3c2=O)cc1 was run?
**A.** > 40 µM (inactive)

**Q.** COc1cc(C)cc2c1C(=O)c1c(cc(O)c(Cl)c1O)C2=O was tested. Which IC50 did it give?
**A.** 4.38 µM

**Q.** How did the IC50 turn out when CC1Oc2cc3c(-c4c(O)cc(O)c5c(O)c6c(cc45)OC(C)C(C)C6=O)c(O)cc(O)c3c(O)c2C(=O)C1C (stereo unspecified) was run?
**A.** > 40 µM (inactive)

**Q.** COC(=O)c1ccc(N2CCN(C(C)=O)CC2)c(NC(=O)COc2ccc([N+](=O)[O-])cc2)c1 was tested. Which IC50 did it give?
**A.** 25.1 µM

**Q.** For O=C(Cn1c(=O)n(CCC(=O)NC2CCCC2)c(=O)c2ccccc21)NCc1ccccc1Cl, which IC50 is on record?
**A.** > 40 µM (inactive)

**Q.** Which IC50 does the source give for CC(C)c1ccc(NC(=O)COC(=O)c2ccc(NS(=O)(=O)c3ccc4c(c3)OCCO4)cc2)cc1 here?
**A.** 22.3 µM

**Q.** For CCOC(=O)c1ccc(NC(=O)Cn2c(=O)n(CC(=O)NCc3ccco3)c(=O)c3ccccc32)cc1, which IC50 is on record?
**A.** 16.2 µM

**Q.** How did the IC50 turn out when O=C(CNS(=O)(=O)c1ccc(F)cc1)N1CCCC(c2nnc3ccccn23)C1 (stereo unspecified) was run?
**A.** > 40 µM (inactive)

**Q.** Which IC50 does the source give for CCCCCCCCCCCC1=C(O)C(=O)C=C(O)C1=O here?
**A.** 2.44 µM

**Q.** With O=C(NCc1ccc2c(c1)OCO2)c1cc2c(s1)CCC2 as the compound, how does the IC50 read?
**A.** 13.2 µM

**Q.** Cc1c(C#N)c2ccccc2n1CC(=O)NCc1ccc2c(c1)OCO2 was tested. Which IC50 did it give?
**A.** > 40 µM (inactive)

**Q.** How did the IC50 turn out when Cn1c(=O)n(CCc2ccccc2)c(=O)c2c1nc1n2CCN1Cc1ccccc1 was run?
**A.** > 40 µM (inactive)

**Q.** For O=S(=O)(Nc1ccc(Oc2ncnc3cc(Cl)ccc23)nc1)c1ccc(S(=O)(=O)c2ccccc2)s1, which IC50 is on record?
**A.** 29.5 µM

**Q.** Cc1ccc2c(c1)c(=O)c(C(=O)c1ccccc1)cn2CC(=O)Nc1ccc2c(c1)OCCO2 was tested. Which IC50 did it give?
**A.** > 40 µM (inactive)

**Q.** How did the IC50 turn out when Cc1nc(C(=O)NC2(O)C(=O)c3ccccc3C2=O)cs1 was run?
**A.** 6.82 µM

**Q.** How did the IC50 turn out when CNc1nc2c(c(=O)n1C)CN(C(=O)Nc1cccc3ccccc13)CC2 was run?
**A.** > 40 µM (inactive)

**Q.** With O=C(NCCc1nc2ccccc2n1CCCOc1ccccc1Cl)C1CCCCC1 as the compound, how does the IC50 read?
**A.** 32.8 µM

**Q.** How did the IC50 turn out when CCc1ccc([C@@H]2c3c(C)nn(C)c3NC(=O)[C@H]2NC(=O)c2ccc(OC)c(OC)c2)cc1 was run?
**A.** > 40 µM (inactive)

**Q.** With c1ccc2sc(-c3csc(-c4ccc5c(c4)OCCO5)n3)nc2c1 as the compound, how does the IC50 read?
**A.** > 40 µM (inactive)

Source: PubChem BioAssay AID1645863 (Buhrlage Lab, Dana-Farber Cancer Institute and Novartis …, 2021)
